The values below come from PubChem BioAssay (NCI).

Where “and” joins values, the source holds several entries; their conditions need not be identical. Equal entries are not always repeated.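 Where inhibition never reached the appropriate level, the endpoint shown equals the highest concentration tested. Otherwise, values were interpolated linearly from a five-concentration, 48-hour dose response in 96-well plates. The concentration for 50% growth inhibition is given as GI50. TGI marks complete inhibition of growth.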

Test in all cases: DTP human tumour cell line panel, 48 h
In test [1] the test system is T-47D breast.
Test [2] has as its system MDA-MB-231 breast.
Test [3] concerns HS 578T breast.
The subject of test [4] is PC-3 prostate.
In test [5] the test system is NCI/ADR-RES ovarian.

One may read the GI50 as the concentration giving 50% growth inhibition. The TGI is the concentration at which net growth stops. Low values mean greater sensitivity of the cells, high ones lower sensitivity of the cells.

As for `COc1ccc2c(c1)C(=O)/C(=C/c1ccc(OCC(=O)Nc3nccs3)cc1)O2`, the GI50 in test [1] is 7.05 µM; in test [2] it was 0.748 µM; in test [3], 9.23 µM; in test [4] it was 0.264 µM; in test [5], 27.3 µM. The TGI in test [1] is 31.9 µM; in test [2], 5.78 µM; in test [3] it was over 63.8 µM; in test [4] it was 2.17 µM; in test [5], over 100 µM.
As to `CC(C)c1ccc(C(C)C(=O)N(CC2=C(C(C)c3ccccn3)c3ccccc3C2)C(C)C)cc1` (configuration not stated), the GI50 was 2.94 µM in test [1]; 3.47 µM in test [2]; 1.84 µM in test [3]; 2.66 µM in test [4]; 2.67 µM in test [5]. Besides, the TGI in test [1] is over 100 µM; in test [2], 22.7 µM; in test [3] it was 13.6 µM; in test [4], over 100 µM; in test [5], 19.2 µM.
`CC1=C(C(=O)Nc2ccc(F)c(Cl)c2)C(c2ccc(Cl)cc2)NC(=O)N1` (configuration not stated): the GI50 is over 100 µM in test [1]; 13.7 µM in test [2]; 21.5 µM in test [3]; 15.1 µM in test [4]; 25.4 µM in test [5]. The TGI in test [1] is over 100 µM; in test [2], 27.1 µM; in test [3], 51.1 µM; in test [4], 31.9 µM; in test [5], 75.2 µM.
For `NC1CCC(Nc2nc(NCc3ccc(-c4ccco4)nc3)c3ncn(C4CCCC4)c3n2)CC1` (configuration not stated), the GI50 in test [1] is 0.0249 µM; in test [2], 0.0137 µM; in test [3], 0.0205 µM; in test [4], 0.0307 µM. Moreover, the TGI was 0.0955 µM and 0.347 µM in test [3]; 0.206 µM and 1.69 µM in test [4]; 1.39 µM in test [5].
For the compound `CSc1ccccc1C#C/C=C\C#Cc1ccccc1N1CCCC1=O`, the TGI in test [1] was over 20.3 µM; in test [2], over 50 µM; in test [3] it was over 50 µM; in test [4], over 50 µM; in test [5] it was over 19.9 µM. The figures for the GI50 in test [3] and in test [4] were over 9.95 µM and over 50 µM, respectively.
On to `O=C(NCCNc1nccc(-c2c(-c3cccc(O)c3)nc3sccn23)n1)c1ccccc1O`, for which the GI50 in test [1] was 3.65 µM; in test [2], 2.87 µM; in test [3], 3.15 µM; in test [4], 4.36 µM; in test [5], 6.64 µM. Moreover, the TGI in test [1] is 20.5 µM; in test [2], 32 µM; in test [3] it was 16 µM; in test [4] it was 55.1 µM; in test [5], 70.1 µM.
In the case of `O=C1c2ccccc2C(=O)c2sc(Nc3cccc(Cl)c3)nc21`, the GI50 in test [1] was 1.84 µM; in test [2], 0.292 µM; in test [3] it was 2.82 µM; in test [4] it was 1.89 µM; in test [5], 2.01 µM. Further, the TGI is 5.98 µM in test [1]; 3.37 µM in test [2]; 9.15 µM in test [3]; 6.75 µM in test [4]; 4.78 µM in test [5].
In the case of `COc1cc(C(=O)/C=C/c2sc(Cl)nc2Cl)cc(OC)c1OC`, the GI50 in test [1] is 2.14 µM; in test [2], 1.65 µM; in test [3], 2.02 µM; in test [4] it was 1.8 µM; in test [5], 1.97 µM. Also, the TGI in test [1] stood at 5.35 µM; in test [2], 3.07 µM; in test [3], 5.54 µM; in test [4] it was 3.7 µM; in test [5] it was 4.07 µM.
Consider `Fc1ccc(Nc2ncnc3ccc(-c4cnc5[nH]ccc5c4)cc23)cc1Cl`, for which the GI50 in test [1] is 0.592 µM; in test [2], 2.03 µM; in test [3] it was 2.66 µM; in test [4] it was 3.54 µM; in test [5], 2.98 µM. In addition, the total growth inhibition concentration (TGI) in test [1] is 13.9 µM; in test [2] it was 6.06 µM; in test [3], over 45.9 µM; in test [4] it was 27.3 µM; in test [5] it was over 87.8 µM.
Take `O=C(Nc1ccc(I)cc1)c1cc([N+](=O)[O-])ccc1O`: the GI50 in test [1] was 3.87 µM; in test [2] it was 10 µM; in test [3], 3.13 µM; in test [4] it was 3.42 µM; in test [5] it was 5.85 µM. Moreover, the concentration for total growth inhibition (TGI) in test [1] is over 100 µM; in test [2], 53.1 µM; in test [3], 29.3 µM; in test [4], 23.4 µM; in test [5], over 100 µM.
Take `COc1cc2nc(C)nc(N[C@H](C)c3cc(N)cc(C(F)(F)F)c3)c2cc1O[C@H]1CCOC1`: the GI50 was 16.3 µM in test [1]; 12.1 µM in test [2]; 14.7 µM in test [3]; 10.4 µM in test [4]; 18.3 µM in test [5]. In addition, the TGI in test [1] was determined as 41.4 µM; in test [2], 28.6 µM; in test [3] it was 38.9 µM; in test [4], 23.4 µM; in test [5], 60.9 µM.
Consider `CN(C)CCCNC1=C(Cl)C(=O)c2ccccc2C1=O`, for which the GI50 in test [1] was 2.94 µM; in test [2], 1.79 µM; in test [3] it was 2.2 µM; in test [4] it was 3.12 µM; in test [5], 7.93 µM. Also, the TGI in test [1] stood at 9.33 µM; in test [2] it was 3.94 µM; in test [3] it was 7.02 µM; in test [4] it was 13.2 µM; in test [5] it was 31.8 µM.
For the compound `COC(=O)[C@@H](C)C[C@H](Cc1ccc(F)cc1)NC(=O)c1csc([C@@H](C[C@H](C(C)C)N(C)C(=O)[C@@H](NC(=O)[C@H]2CCCCN2C)C(C)C)OC(C)=O)n1`, the GI50 in test [2] was 0.0023 µM and 0.0158 µM; in test [3] it was 0.00102 µM and 0.00612 µM; in test [4], 0.00196 µM and 0.00756 µM. Also, the TGI in test [4] and in test [5] was over 16.7 µM each time.
With `CN(C)c1ccc(-c2cc(-c3ccc(Nc4nc(Nc5ccc(Cl)cc5)nc(Nc5ccc(Cl)cc5)n4)cc3)no2)cc1`, the GI50 in test [1] is 3.69 µM; in test [2] it was 9.66 µM; in test [3], 3.97 µM; in test [5], 5.38 µM. Further, the concentration for total growth inhibition (TGI) in test [1] was 78.5 µM; in test [2], 37.7 µM; in test [3] it was over 100 µM; in test [5] it was 88.6 µM.
